Reference: patent US9657014B2, “Substituted 1,6-naphthyridines” (Hoffmann-La Roche Inc., priority 2012, dated 2017)

System: human embryonic stem cell derived neural stem cells (NSCs)
Test: Neural stem cell proliferation assay (neurogenesis assay)
Type: cell-based
Details: Homo sapiens, Neural stem cell, 96 h, concentration at which 150% activity of control (100%) is reached, ATP levels (CellTiterGlo) after 4 days incubation
Method: Neural Stem Cell Proliferation Assay
Neurogenic properties of small molecules are determined based on the proliferation of human embryonic stem cell derived neural stem cells (NSCs) which were derived via a dual smad inhibition as previously described (Chambers, S. M., et al., Highly efficient neural conversion of human ES and iPS cells by dual inhibition of SMAD signaling, Nature biotechnology, 2009. 27 (3): p. 275-80.)
Compounds respond is measured by the increase in cells based on ATP levels (Promega:CellTiterGlo®) after an incubation period of 4 days.
NSCs are thawed and expanded over 3 passages. On the 14th day, NSCs are seeded in Polyornithin/Laminin coated 384 well plates at a cell density of 21,000 cells/cm^2 in a media volume of 38 μl.
4 hours after cell seeding, compound solutions are added at a volume of 2 μl. Stock solutions of the compounds (water, 5% DMSO) are diluted to obtain a dose response (11 points, dilution factor is 2), ranging from 8 μM to 8 nM. Controls are run to consistently determine the neurogenic properties of the cells:
Negative (neutral) control is cell culture Media (final DMSO concentration: 0.25%).
Positive controls are: • 1. cell culture Media+100 ng/ml FGF2 (final DMSO concentration: 0.1%) • 2. cell culture Media+20 ng/ml EGF (final DMSO concentration: 0.1%) • 3. cell culture Media+100 ng/ml Wnt3a (final DMSO concentration: 0.1%)
After 4 days incubation at 37° C., 5% CO2, the amount of ATP per well is quantified. The ATP concentration is proportional to the cell number. ATP is quantified by using the Promega CellTiterGlo® kit. The CellTiterGlo® reagents contain a cell lysis buffer, a thermo stable luciferase (UltraGlo™ recombinant luciferase), magnesium and luciferin. Luciferin reacts with ATP producing oxyluciferin, AMP and light. The luminescence signal is proportional to the ATP content.
The value of negative (neutral) control is determined for each assay plate by taking the average of 16 negative control wells. The neurogenic compound response is calculated for each compound as (compound/Negative Control)*100.
The values of EC150 from the dose response curve are determined for each test compound. The EC150 is the compound concentration at which 150% activity of control (100%) is reached.

Q: For `Cc1ccccc1-c1cncc2ccc(C(=O)NC(C)C(C)(C)O)nc12` (centres unmarked) [Example 176, N-(3-Hydroxy-3-methylbutan-2-yl)-8-o-tolyl-1,6-naphthyridine-2-carboxamide], which EC (150% of control) (Table 1, novel compounds) is on record?
A: 0.28 µM

Q: For `CC(NC(=O)c1ccc2cncc(-c3ccc(Cl)cc3)c2n1)c1cccc(S(C)(=O)=O)c1` (single isomer, unassigned; (-)) [Example 52, (−)-8-(4-Chloro-phenyl)-[1,6]naphthyridine-2-carboxylic acid [(S or R)-1-(3-methanesulfonyl-phenyl)-ethyl]-amide], which EC (150% of control) (Table 1, novel compounds) is on record?
A: 0.8 µM

Q: `CN(C(=O)c1ccc2cncc(-c3ccc(Cl)cc3)c2n1)C1CC1` [Example 97, 8-(4-Chlorophenyl)-N-cyclopropyl-N-methyl-1,6-naphthyridine-2-carboxamide] was tested. Which EC (150% of control) (Table 1, novel compounds) did it give?
A: 0.26 µM

Q: For `CC(NC(=O)c1ccc2cncc(-c3ccc(Cl)c(F)c3)c2n1)C(C)(C)O` (centres unmarked) [Example 170, 8-(4-Chloro-3-fluorophenyl)-N-(3-hydroxy-3-methylbutan-2-yl)-1,6-naphthyridine-2-carboxamide], which EC (150% of control) (Table 1, novel compounds) is on record?
A: 0.25 µM

Q: `CC(C)(C)CNC(=O)c1ccc2cncc(-c3ccc(Cl)cc3)c2n1` [Example 68, 8-(4-Chlorophenyl)-N-neopentyl-1,6-naphthyridine-2-carboxamide] was tested. Which EC (150% of control) (Table 1, novel compounds) did it give?
A: 0.07 µM

Q: With `O=C(NCCCn1ccnc1)c1ccc2cncc(-c3cccc(Cl)c3)c2n1` [Example 36, N-(3-(1H-Imidazol-1-yl)propyl)-8-(3-chlorophenyl)-1,6-naphthyridine-2-carboxamide] as the compound, how does the EC (150% of control) (Table 1, novel compounds) read?
A: 1.04 µM

Q: With `COc1ccccc1CNC(=O)c1ccc2cncc(-c3ccsc3)c2n1` [Example 202, 8-Thiophen-3-yl-[1,6]naphthyridine-2-carboxylic acid 2-methoxy-benzylamide] as the compound, how does the EC (150% of control) (Table 2, known compounds) read?
A: 0.15 µM

Q: For `COCCNC(=O)c1ccc2cncc(-c3cccc(Cl)c3)c2n1` [Example 7, 8-(3-Chlorophenyl)-N-(2-methoxyethyl)-1,6-naphthyridine-2-carboxamide], which EC (150% of control) (Table 1, novel compounds) is on record?
A: 0.32 µM

Q: For `O=C(NN1CCCCC1)c1ccc2cncc(-c3ccc(Cl)cc3)c2n1` [Example 59, 8-(4-Chlorophenyl)-N-(piperidin-1-yl)-1,6-naphthyridine-2-carboxamide], which EC (150% of control) (Table 1, novel compounds) is on record?
A: 1.48 µM

Q: Which EC (150% of control) (Table 1, novel compounds) does the source give for `CC(NC(=O)c1ccc2cncc(-c3ccc(F)cc3F)c2n1)c1ccc(S(C)(=O)=O)cc1` (centres unmarked) [Example 110, 8-(2,4-Difluorophenyl)-N-(1-(4-(methylsulfonyl)phenyl)ethyl)-1,6-naphthyridine-2-carboxamide] here?
A: 0.49 µM

Q: With `O=C(c1ccc2cncc(-c3ccsc3)c2n1)N1CCN(c2ccccn2)CC1` [Example 200, (4-Pyridin-2-yl-piperazin-1-yl)-(8-thiophen-3-yl-[1,6]naphthyridin-2-yl)-methanone] as the compound, how does the EC (150% of control) (Table 2, known compounds) read?
A: 0.8 µM

Q: How did the EC (150% of control) (Table 1, novel compounds) turn out when `CC(NC(=O)c1ccc2cncc(-c3ccc(OCC(F)(F)F)cc3)c2n1)C(C)(C)O` (centres unmarked) [Example 163, N-(3-Hydroxy-3-methylbutan-2-yl)-8-(4-(2,2,2-trifluoroethoxyl)phenyl)-1,6-naphthyridine-2-carboxamide] was run?
A: 0.07 µM

Q: With `O=C(NCCO)c1ccc2cncc(-c3cccc(O)c3)c2n1` [Example 144, N-(2-Hydroxyethyl)-8-(3-hydroxyphenyl)-1,6-naphthyridine-2-carboxamide] as the compound, how does the EC (150% of control) (Table 1, novel compounds) read?
A: 0.16 µM

Q: `NC(=O)c1ccc2cncc(-c3cccc(F)c3)c2n1` [Example 78, 8-(3-Fluorophenyl)-1,6-naphthyridine-2-carboxamide] was tested. Which EC (150% of control) (Table 1, novel compounds) did it give?
A: 0.05 µM

Q: For `NC(=O)c1ccc2cncc(-c3ccc4c(c3)OCO4)c2n1` [Example 91, 8-(Benzo[d][1,3]dioxol-5-yl)-1,6-naphthyridine-2-carboxamide], which EC (150% of control) (Table 1, novel compounds) is on record?
A: 0.03 µM

Q: For `CC(NC(=O)c1ccc2cncc(-c3cccc(F)c3)c2n1)c1ccc(S(C)(=O)=O)cc1` (centres unmarked) [Example 109, 8-(3-Fluorophenyl)-N-(1-(4-(methylsulfonyl)phenyl)ethyl)-1,6-naphthyridine-2-carboxamide], which EC (150% of control) (Table 1, novel compounds) is on record?
A: 4.2 µM

Q: Which EC (150% of control) (Table 1, novel compounds) does the source give for `NCc1ccc(-c2cncc3ccc(C(N)=O)nc23)cc1` [Example 156, 8-(4-(Aminomethyl)phenyl)-1,6-naphthyridine-2-carboxamide] here?
A: 0.31 µM
